The structures appear in SMILES notation.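 Interpolation was linear, between the two tested concentrations surrounding the appropriate level; five concentrations were tested over 48 hours in 96-well plates. TGI: concentration producing complete growth inhibition.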 A value given as a limit tells only on which side of the number the result lay.

Results on 14 compounds are retold here after PubChem BioAssay (NCI).

Among the test systems are HOP-62 NSCLC; SF-295 CNS; CCRF-CEM leukemia; HCC-2998 colon; IGROV1 ovarian; U251 CNS; NCI-H226 lung; OVCAR-4 ovarian; HCT-15 colon.
Holding throughout (assay): growth of human tumour cells (NCI), 48 h

On to `O=C(O)/C(Cc1ccc([N+](=O)[O-])cc1)=N\O`, for which the TGI with HOP-62 NSCLC, with SF-295 CNS, in the assay on CCRF-CEM leukemia, with HCC-2998 colon, in the assay with IGROV1 ovarian and in the assay on U251 CNS was greater than 100 µM throughout. Also, the TGI with NCI-H226 lung, in the assay on OVCAR-4 ovarian and with HCT-15 colon was greater than 100 µM each time.
As to `Cc1ccc2oc(=O)c(C(=O)Nc3nc(C45CC6CC(CC(C6)C4)C5)cs3)cc2c1`, the TGI with HOP-62 NSCLC, in the assay on SF-295 CNS, in the assay on CCRF-CEM leukemia, in the assay on HCC-2998 colon, with IGROV1 ovarian and in the assay with U251 CNS was greater than 100 µM throughout. Moreover, the TGI in the assay with NCI-H226 lung, in the assay on OVCAR-4 ovarian and with HCT-15 colon was greater than 100 µM throughout.
On to `CCOC(=O)CNc1nc(=O)c2c(=O)oc(Cl)cc2o1`, for which the TGI in the assay with HOP-62 NSCLC is 53.3 µM; in the assay with SF-295 CNS, greater than 100 µM; in the assay on CCRF-CEM leukemia, 68.3 µM; with HCC-2998 colon, 29 µM; with IGROV1 ovarian it was 21.7 µM; in the assay on U251 CNS, 85.3 µM. The TGI was greater than 100 µM in the assay with NCI-H226 lung, 34.3 µM with OVCAR-4 ovarian and 23.7 µM in the assay on HCT-15 colon.
As to `COC(=O)[C@H](Cc1c[nH]c2ccccc12)NC(=O)c1ccc(CNC(=O)/C=C/c2cccc(Oc3ccccc3)c2)cc1`, the TGI with HOP-62 NSCLC, with SF-295 CNS, in the assay with CCRF-CEM leukemia, in the assay on HCC-2998 colon, in the assay with IGROV1 ovarian and with U251 CNS was greater than 100 µM each time. Further, the TGI in the assay on NCI-H226 lung, with OVCAR-4 ovarian and with HCT-15 colon was greater than 100 µM in each case.
On to `CCCCCCCCCCCCCCCC(=O)N(CCCCCCCCCCC(=O)O)CC(O)C(O)C(OC1OC(CO)C(O)C(O)C1O)C(O)CO` (stereo unspecified), for which the TGI in the assay on HOP-62 NSCLC was 75.8 µM; with SF-295 CNS it was 33.4 µM; in the assay with CCRF-CEM leukemia, 45.7 µM; with HCC-2998 colon it was 49.5 µM; in the assay with IGROV1 ovarian, greater than 100 µM; in the assay on U251 CNS it was 32.9 µM. The TGI in the assay on NCI-H226 lung, with OVCAR-4 ovarian and with HCT-15 colon was greater than 100 µM throughout.
Consider `CC(C)C(/C=C/c1ccc(Cl)c(Cl)c1)=N\NC(=O)N/N=C(/C=C/c1ccc(Cl)c(Cl)c1)C(C)C`, for which the TGI in the assay on HOP-62 NSCLC, with SF-295 CNS, with CCRF-CEM leukemia, with HCC-2998 colon, in the assay with IGROV1 ovarian and with U251 CNS was greater than 100 µM in each case. Besides, the TGI with NCI-H226 lung, in the assay on OVCAR-4 ovarian and in the assay with HCT-15 colon was greater than 100 µM each time.
In the case of `CCOC(=O)C(NC(=O)c1ccccc1)(N1CCOCC1)C(F)(F)F` (stereo unspecified), the TGI with HOP-62 NSCLC, in the assay with SF-295 CNS, in the assay on CCRF-CEM leukemia, in the assay on HCC-2998 colon, in the assay on IGROV1 ovarian and with U251 CNS was greater than 100 µM in each case. Besides, the TGI in the assay with NCI-H226 lung, with OVCAR-4 ovarian and in the assay with HCT-15 colon was greater than 100 µM each time.
Take `CCNC(=O)c1c(O)c2ccccc2[nH]c1=O`: the TGI in the assay on HOP-62 NSCLC, with SF-295 CNS, in the assay on CCRF-CEM leukemia, in the assay on HCC-2998 colon, with IGROV1 ovarian and in the assay with U251 CNS was greater than 100 µM in each case. For the same compound, the TGI in the assay on NCI-H226 lung, in the assay on OVCAR-4 ovarian and in the assay on HCT-15 colon was greater than 100 µM each time.
For `CCOP(=O)(OCC)C(C#N)Cc1ccco1` (stereo unspecified), the TGI in the assay with HOP-62 NSCLC, in the assay on SF-295 CNS, in the assay with CCRF-CEM leukemia, with HCC-2998 colon, in the assay with IGROV1 ovarian and in the assay with U251 CNS was greater than 10 µM in each case. The TGI with NCI-H226 lung, in the assay with OVCAR-4 ovarian and in the assay on HCT-15 colon was greater than 10 µM throughout.
Take `O=CC12C3CCC1C2C(=O)C3` (stereo unspecified): the TGI with HOP-62 NSCLC, in the assay with SF-295 CNS, in the assay with CCRF-CEM leukemia, in the assay with HCC-2998 colon, with IGROV1 ovarian and with U251 CNS was greater than 100 µM in each case. Further, the TGI with NCI-H226 lung, in the assay with OVCAR-4 ovarian and in the assay with HCT-15 colon was greater than 100 µM throughout.
Take `CC(=O)N=C1N(/C=C2\C(=O)Oc3ccccc3C2=O)C(=O)/C(=C/c2ccc(Cl)cc2Cl)N1C`: the TGI with HOP-62 NSCLC, in the assay on SF-295 CNS, with CCRF-CEM leukemia, in the assay with HCC-2998 colon, in the assay with IGROV1 ovarian and in the assay with U251 CNS was greater than 100 µM each time. Also, the TGI in the assay with NCI-H226 lung, in the assay on OVCAR-4 ovarian and in the assay with HCT-15 colon was greater than 100 µM each time.
In the case of `CC1=C(C(=O)c2ccccc2)C23C(=O)N(c4ccccc4)C(=O)C2=C(O)C=CC3(O)N1` (stereo unspecified), the TGI in the assay on HOP-62 NSCLC is greater than 100 µM; with SF-295 CNS, greater than 100 µM; with CCRF-CEM leukemia, greater than 100 µM; in the assay on HCC-2998 colon it was 56.4 µM; in the assay with IGROV1 ovarian, 51.9 µM; with U251 CNS, 81.5 µM. Moreover, the TGI in the assay with NCI-H226 lung, in the assay on OVCAR-4 ovarian and in the assay on HCT-15 colon was greater than 100 µM in each case.
As to `COc1ccc(N2C=Nn3c(nc4sc5c(c4c3=O)CCCC5)C2)cc1`, the TGI in the assay on HOP-62 NSCLC is 13.5 µM; in the assay on SF-295 CNS it was 68 µM; in the assay with CCRF-CEM leukemia, greater than 100 µM; with HCC-2998 colon it was greater than 100 µM; with IGROV1 ovarian, greater than 100 µM; in the assay with U251 CNS it was greater than 100 µM. Also, the TGI in the assay on NCI-H226 lung, with OVCAR-4 ovarian and in the assay on HCT-15 colon was greater than 100 µM in each case.
`O=C1CC(c2cccc(Br)c2)n2cccc21` (stereo unspecified): the TGI with HOP-62 NSCLC, with SF-295 CNS, in the assay on CCRF-CEM leukemia, in the assay on HCC-2998 colon, with IGROV1 ovarian and with U251 CNS was greater than 100 µM throughout. Further, the TGI with NCI-H226 lung, in the assay on OVCAR-4 ovarian and with HCT-15 colon was greater than 100 µM in each case.
